Experimental data as given in the CombiSolv-Exp solvation set (Vermeire and Green 2021).

Test: solvent given as SMILES

CC(=O)c1ccncc1
Settings | solvation free energy, 298 K [kJ/mol]
in O | -31.9

CCCCCCCCC=CCCCCCCCCCCCC(=O)OC
Settings | solvation free energy, 298 K [kJ/mol]
in O | -4.56

CN1CCCC1
Settings | solvation free energy, 298 K [kJ/mol]
in CCCCCCCCO | -20.8

Oc1ccc2ccccc2c1
Settings | solvation free energy, 298 K [kJ/mol]
in Brc1ccccc1 | -43.7
in CC(C)CC(C)(C)C | -34.4
in CCCCCC | -35.4
in CCCCCCC | -35.7
in CCCCCCCC | -36.1
in CCCCCCCCCC | -36
in ClC(Cl)(Cl)Cl | -39.5
in ClC(Cl)Cl | -43.8
in Clc1ccccc1 | -43.3
in O | -34

CCCCCCO
Settings | solvation free energy, 298 K [kJ/mol]
in Brc1ccccc1 | -25
in C1CCOC1 | -31
in CC#N | -26.9
in CC(C)CC(C)(C)C | -21.3
in CC(C)O | -31.5
in CCC(C)=O | -29.1
in CCCCCC | -21
in CCCCCCC | -22
in CCCCCCCC | -20.9
in CCCCCCCCCC | -20.9
in CCCCCCCCCCCCCCCC | -20.5
in CCCCCCCCCCO | -29.2
in CCCCCCCCO | -29.5
in CCCCCl | -25.1
in CCCCOC(C)=O | -28.6
in CCCOCCC | -26.4
in Cc1ccccc1C | -24.7
in NC=O | -25.3
in O | -18.4
in [2H]O[2H] | -19.1

CCOC(=O)CC(=O)OCC
Settings | solvation free energy, 298 K [kJ/mol]
in O | -25.1

CCCCCCl
Settings | solvation free energy, 298 K [kJ/mol]
in C1CCOC1 | -23.7
in C1CCOCC1 | -21.9
in C1COCCO1 | -20.7
in C=CCCCCCCCCCCCCCC | -18.7
in CC(C)=O | -20.3
in CCCCCC | -19.9
in CCCCCCCCC=CCCCCCCCC(=O)OCC(COC(=O)CCCCCCCC=CCCCCCCCC)OC(=O)CCCCCCCC=CCCCCCCCC | -19.3
in CCCCCCCCCCCCCCCC | -18.4
in CCCCOCCCC | -20
in O | -0.251

CC(=O)CCCCC(C)C
Settings | solvation free energy, 298 K [kJ/mol]
in NC=O | -21.3
in O | -11.9

Cc1c(C)c(C)c(C)c(C)c1C
Settings | solvation free energy, 298 K [kJ/mol]
in CCCCCCCCO | -36
in O | -8.16

CC(F)(Cl)Cl
Settings | solvation free energy, 298 K [kJ/mol]
in CCCCCCCC(=O)OCC(COC(=O)CCCCCCC)OC(=O)CCCCCCC | -12.1

CCCCCCCCCCCCCCCC(=O)OCC
Settings | solvation free energy, 298 K [kJ/mol]
in O | -30.3

Cn1cccc1
Settings | solvation free energy, 298 K [kJ/mol]
in O | -12.1

CCCCCC
Settings | solvation free energy, 298 K [kJ/mol]
in BrC(Br)C(Br)Br | -11.4
in Brc1cccc2ccccc12 | -12.8
in Brc1ccccc1 | -15.3
in C1=Cc2ccccc2C1 | -14.6
in C1CCC(C2CCCCC2)CC1 | -15.6
in C1CCCCC1 | -17
in C1CCOC1 | -16.3
in C1COCCO1 | -13.5
in C=CCCCC | -16.8
in C=CCCCCCC | -16.4
in C=CCCCCCCCC | -16.4
in C=CCCCCCCCCCCCCCC | -15
in CC1CCS(=O)(=O)C1 | -8.91
in CC1COC(=O)O1 | -8.54
in CC#N | -11
in CC(=O)CC(C)C | -15
in CC(=O)N(C)C | -11.5
in CC(=O)O | -12.1
in CC(=O)OCc1ccccc1 | -12.6
in CC(=O)c1ccccc1 | -12.7
in CC(C)(C)Cl | -16.7
in CC(C)(C)O | -13.9
in CC(C)=O | -13.6
in CC(C)CCCC(C)CCCC(C)CCCCC(C)CCCC(C)CCCC(C)C | -14.5
in CC(C)CCO | -13.8
in CC(C)CCl | -16.5
in CC(C)CO | -14.1
in CC(C)O | -13.4
in CC(C)OC(C)C | -16.7
in CC(O)CO | -8.12
in CCBr | -17.1
in CCC#N | -13.1
in CCC(C)(C)C | -16.9
in CCC(C)(C)OC | -16.4
in CCC(C)=O | -14.4
in CCC(C)Cl | -16.7
in CCCC#N | -12.8
in CCCC(=O)OCC | -15.2
in CCCC(C)=O | -14.7
in CCCCC | -17.2
in CCCCC#N | -13.7
in CCCCC(CC)COC(=O)CCCCC(=O)OCC(CC)CCCC | -13.9
in CCCCC(CC)COC(=O)c1ccccc1C(=O)OCC(CC)CCCC | -13.1
in CCCCCC#N | -13.7
in CCCCCC(C)=O | -14.8
in CCCCCCC | -16.6
in CCCCCCCC | -16.4
in CCCCCCCCC | -16.2
in CCCCCCCCC=CCCCCCCCC(=O)OCC(COC(=O)CCCCCCCC=CCCCCCCCC)OC(=O)CCCCCCCC=CCCCCCCCC | -14.4
in CCCCCCCCCC | -16
in CCCCCCCCCCCC | -15.6
in CCCCCCCCCCCCCC | -15.1
in CCCCCCCCCCCCCCCC | -15.2
in CCCCCCCCCCCCO | -13.8
in CCCCCCCCCOC(=O)c1ccccc1C(=O)OCCCCCCCCC | -13.5
in CCCCCCCCN(CCCCCCCC)CCCCCCCC | -14.6
in CCCCCCCCO | -14.1
in CCCCCCCO | -13.9
in CCCCCCO | -14.2
in CCCCCCOC(C)=O | -15.1
in CCCCCN(CCCCC)CCCCC | -15.4
in CCCCCO | -13.9
in CCCCCl | -16.4
in CCCCN(C=O)CCCC | -13.6
in CCCCN(CCCC)CCCC | -15.1
in CCCCO | -13.9
in CCCCOC(=O)c1ccccc1C(=O)OCCCC | -13.6
in CCCCOC(C)=O | -15
in CCCCOCCCC | -16.2
in CCCO | -13.2
in CCN1CCCC1=O | -12
in CCN(CC)C(C)=O | -13
in CCN(CC)CC | -16.8
in CCNC(C)=O | -12.2
in CCNC=O | -11.3
in CCO | -13
in CCOC(=O)c1ccccc1C(=O)OCC | -11.4
in CCOC(C)(C)C | -16.4
in CCOC(C)=O | -14.5
in CCOCC | -16.7
in CCOCCO | -12.4
in CCOCCOCCOCC | -14.3
in CCOc1ccccc1 | -14.6
in CN1CCCC1=O | -11.1
in CN1CCCCC1=O | -11.6
in CN1CCN(C)C1=O | -10.5
in CN(C)C=O | -11
in CN(C)P(=O)(N(C)C)N(C)C | -12.5
in CNC(C)=O | -11.5
in CNC=O | -9.87
in CO | -11.8
in COC(C)(C)C | -16.8
in COC(C)=O | -13.8
in COCCO | -11.3
in COCCOCCOCCOCCOC | -11.8
in COc1ccccc1 | -14.3
in CS(C)=O | -7.66
in Cc1ccc(C)cc1 | -16.2
in Cc1cccc2ccccc12 | -14.1
in Cc1cccc(C)c1 | -16.1
in Cc1cccc(O)c1 | -12.2
in Cc1ccccc1 | -16.2
in Cc1ccccn1 | -14.6
in ClC(Cl)(Cl)Cl | -17.1
in ClC(Cl)C(Cl)Cl | -14
in ClC(Cl)Cl | -16.5
in ClCCCl | -14.4
in ClCCl | -15.7
in Clc1cccc2ccccc12 | -13.5
in Clc1ccccc1 | -16.1
in FC(F)(F)C(F)(F)C(F)(F)C(F)(F)C(F)(F)C(F)(F)C(F)(F)C(F)(F)F | -10.6
in FC(F)(F)C(F)(F)C(F)(F)C(F)(F)C(F)(F)C(F)(F)F | -11.2
in Fc1ccccc1 | -16.2
in ICI | -9.2
in N#CCCCC#N | -6.28
in N#CCCCCC#N | -7.78
in N#CCCO | -7.7
in N#CCCOCCC#N | -3.72
in N#CCc1ccccc1 | -11
in N#Cc1ccccc1 | -13.1
in NC=O | -2.22
in NCCN | -7.74
in NCCO | -3.22
in NCc1ccccc1 | -12.2
in Nc1ccccc1 | -9.87
in O=C1CCCCC1 | -14.1
in O=C1CCCO1 | -9.29
in O=C(O)C(Cl)Cl | -11.5
in O=CN1CCOCC1 | -8.28
in O=Cc1ccco1 | -9.92
in O=S=O | -13.3
in OC1CCCCC1 | -13
in OCC1CCCO1 | -11
in OCCCCCO | -8.49
in OCCCCO | -7.87
in OCCCO | -6.44
in OCCCl | -9.29
in OCCOCCO | -5.98
in OCCOCCOCCO | -6.44
in OCCOCCOCCOCCO | -6.9
in OCCS | -7.95
in OCCc1ccccc1 | -11.5
in OCc1ccccc1 | -11.1
in OCc1ccco1 | -9.5
in S=C=S | -16.9
in c1ccc2c(c1)CCCC2 | -15.3
in c1ccc2ncccc2c1 | -13
in c1ccc(C2CCCCC2)cc1 | -15.1
in c1ccccc1 | -16.1
in c1ccncc1 | -13.7

Cc1ccccc1O
Settings | solvation free energy, 298 K [kJ/mol]
in CC(C)CC(C)(C)C | -23.8
in O | -24.5

CCCCC(C)=O
Settings | solvation free energy, 298 K [kJ/mol]
in C1COCCO1 | -23.8
in CC(C)CC(C)(C)C | -19.7
in CCCCCC | -19.6
in CCCCCCC | -19
in CCCCCCCC | -19.2
in CCCCCCCCCC | -19.3
in CCCCCCCCCCCCCCCC | -18.4
in CCCCCCCCO | -21
in CO | -21.8
in ClC(Cl)(Cl)Cl | -22.4
in NC=O | -18.7
in O | -13.8
in [2H]O[2H] | -13.6

CCCCCCCCCCCCCCCC
Settings | solvation free energy, 298 K [kJ/mol]
in CCO | -37.2
in ClC(Cl)(Cl)Cl | -47.7
in ClCCCl | -40.4
in O=Cc1ccco1 | -33.2
in OCCOCCO | -24.1

CCSCC
Settings | solvation free energy, 298 K [kJ/mol]
in O | -6.11

CCCCCC(=O)CC(C)=O
Settings | solvation free energy, 298 K [kJ/mol]
in O | -18

NC(=O)c1ccccc1
Settings | solvation free energy, 298 K [kJ/mol]
in O | -46.1

CS(C)(=O)=O
Settings | solvation free energy, 298 K [kJ/mol]
in O | -42.2

CCCCCCCCC=CCCCCCCCC(=O)OCC
Settings | solvation free energy, 298 K [kJ/mol]
in O | -34.5

N#Cc1cccnc1
Settings | solvation free energy, 298 K [kJ/mol]
in O | -28.2

CCCCN(CC)C(=O)SCCC
Settings | solvation free energy, 298 K [kJ/mol]
in O | -15.2

CCCCCCCCCCCCCCCCCCC
Settings | solvation free energy, 298 K [kJ/mol]
in CC(=O)N(C)C | -53.8
in CCCCOC(C)=O | -53
in CCO | -45.4
in O | 18.3

Clc1c(Cl)c(Cl)c2c(c1Cl)Oc1ccccc1O2
Settings | solvation free energy, 298 K [kJ/mol]
in O | -15.9

C=C(C)C(CC=C(C)C)COC(C)=O (stereo unspecified)
Settings | solvation free energy, 298 K [kJ/mol]
in O | -14.1

COc1ccccc1OC
Settings | solvation free energy, 298 K [kJ/mol]
in O | -22.3

O=S(=O)(c1ccccc1)c1ccccc1
Settings | solvation free energy, 298 K [kJ/mol]
in C1CCOC1 | -62.3
in C1COCCO1 | -62.9
in CC(C)(C)O | -55.3
in CC(C)CC(C)(C)C | -48.5
in CC(C)CCO | -55
in CC(C)CO | -55.1
in CC(C)O | -55.3
in CC(C)OC(C)C | -54.6
in CCC(C)CO | -55.1
in CCC(C)O | -55.9
in CCCC(C)O | -55
in CCCCCC | -49.2
in CCCCCCC | -49.3
in CCCCCCCC | -49.3
in CCCCCCCCCC | -49.4
in CCCCCCCCCCO | -53.8
in CCCCCCCO | -54.7
in CCCCCCO | -55.1
in CCCCCO | -55.5
in CCCCCl | -59.1
in CCCCO | -55.9
in CCCCOC(C)=O | -59.6
in CCCCOCCCC | -53.8
in CCCO | -56.4
in CCO | -57
in CCOC(C)=O | -60.9
in CCOCC | -57.2
in CO | -57.7
in COC(C)(C)C | -56.6
in COC(C)=O | -61.6
in O | -42.2
